The results in this text go back to paper PMC11604048, “Constrained TACC3 peptidomimetics for a non-canonical protein–protein interface elucidate allosteric communication in Aurora-A kinase” (Chemical Science, 2024).

The assay concerns the target T1, Aurora-A122-403-C290A/C393A (Homo sapiens, UniProt O14965, C290A/C393A).
T1 construct: Human Aurora-A kinase domain 122-403 wild-type or C290A/ C393A mutant; His tag (pET30TEV vector) (N, cleaved yes); made in house; host or cells: E. coli RIL, co-expressed with lambda phosphatase (Aurora-A); tracer by solid phase synthesis
T1 sequence (O14965 122-403 C290A/C393A): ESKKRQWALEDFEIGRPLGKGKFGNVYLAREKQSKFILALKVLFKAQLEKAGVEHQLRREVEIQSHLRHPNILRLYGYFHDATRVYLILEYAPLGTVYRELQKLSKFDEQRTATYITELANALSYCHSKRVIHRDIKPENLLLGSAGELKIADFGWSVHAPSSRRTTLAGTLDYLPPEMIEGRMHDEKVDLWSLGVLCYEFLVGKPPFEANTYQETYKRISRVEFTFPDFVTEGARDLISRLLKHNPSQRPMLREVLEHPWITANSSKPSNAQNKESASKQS
Briefly: Competition FA assay against FAM-Ahx-TACC3 522-536 tracer. The class given is binding. As to conditions: as E1, mean ± SD, n = 3. The method, then:
Once completed, the mixtures were transferred into SPPS fritted reaction vessels and washed with H2O (5X, 10 mL, 2 min), DMF (5X, 5mL, 2 min) and DCM (5X, 5 mL, 2 min). The clean resins were dried under vacuum and the cyclic peptides cleaved from the resin following the general procedures described in previous sections. After Et2O precipitation, the crude materials were freeze-dried and redissolved in H2O/MeCN/TFA 90/10/0.1% v/v for preparative HPLC purification.
All disulfide peptide variants (ox) were produced in situ from their free-thiol solid precursors. For this, 2 mg of the pure peptide materials were dissolved in aqueous DMSO 33% v/v to a 10 mM concentration and were left open to air oxidation at room temperature overnight. […]
the peptides were employed for FA competition assays and IC50 evaluation without further additional […]
Fluorescence anisotropy (FA) assays – General information.
All assays were performed using 384-well plates(Greiner Bio-one, UK). […]
produced as described previously.11 All samples were prepared in 25 mM Tris,150 mM NaCl, 5 mM MgCl2, pH= 7.5, unless otherwise stated, and tested in triplicate using an EnVisionTM 2103 MultiLabel plate reader (PerkinElmer; Waltham, MA, USA).The parameters were set as follows: Excitation wavelength = 480 nm (30 nm bandwidth) and emission wavelength = 535 nm (30 nm bandwidth). Measured data were processed and analysed as previously described.12 Specifically, the perpendicular intensity (P) and parallel intensity (S) were subtracted by the control values and used for calculations of intensity and anisotropy using the following Equations 1, 2, 3, 4, and 5:
I= (2PG) + S Eq. (SI − 5)
r = (S − PG) Eq. (SI − 6)
L = r − r௠௜௡ Eq. (SI − 7)
y = (k + x + [FL]) − ඥ(k + x + [FL]2 − 4 ∗ x ∗ [FL]) Eq. (SI − 8)
y = r + r௠௜௡ − r௠௔௫ Eq. (SI − 9)
Where I = total intensity; P = perpendicular intensity; S = parallel intensity; G = instrument factor; r = anisotropy; Lb = ligand bound fraction; λ = change in intensity between bound and unbound states which […]
FA direct binding assays. […]
starting from 700 μM, diluted over 24 points in a 1/2 regime using the FAM-Ahx-labeled peptides at a final fixed concentration of 50 nM per well.
FA competition assays were performed using the same plates and buffer as described above, with the initial […]
14 points in a 1/2 regime. […]
after 4 h of incubation to enable appropriate sample equilibration. To prevent sample oxidation, when sulfhydryl peptides were analyzed DTT was added to the buffer (5 mM). In competition mode, the average anisotropy and the average standard deviation of the values derived from equation SI-6 were calculated and fit to a sigmoidal logistic model (equation SI-9) using Origin 2021. When using peptides for which full […]
For consistency, all the data […]
indicating the corresponding SD. […]

Where [1] appears, read: oxidised (disulfide) species made in situ from 10 mM stock in aqueous DMSO 33% v/v, air, overnight, WT control (+DMSO) given the same DMSO incubation, read-out: IC50 (ox).
Where [2] appears, read: Table S3 (mal): maleimide-constrained species, WT value is an individual replica control assay, SD, read-out: IC50 (mal).
Setting [3] is: free-sulfhydryl (reduced) species, DTT 5 mM in buffer, WT control (+DTT), read-out: IC50 (red).

Where two headings read alike, the source gives them in different places. *1 amine or outer side, *2 acyl side, *3 side chain or, on linkers, in order; H or OH if unused. Where a SMILES comes first, the peptide text is derived from it. Bridges are numbered along the chain shown (N, C = ends). Maleimide(3,4-diyl) = O=C1NC(=O)C([*:2])=C1[*:1]

As to `CC(=O)N[C@H]1CSSC[C@@H](C(=O)N[C@@H](C)C(=O)N[C@@H](CCC(=O)O)C(=O)N[C@H](C(=O)N[C@@H](CC(C)C)C(=O)NCC(=O)N[C@H](C(=O)NCC(=O)N[C@@H](C)C(N)=O)[C@@H](C)O)C(C)C)NC(=O)[C@H](CC(=O)O)NC(=O)[C@H](CCCNC(=N)N)NC(=O)[C@H](Cc2ccccc2)NC(=O)[C@H](CO)NC(=O)[C@H](CCC(=O)O)NC1=O` [TACC3 522-536 E522C/P528C (ox)] (Ac-CESFRDCAEVLGTGA-NH2; disulfide 1-7), the IC50 under setting [1] is no less than 500 µM.
As to `CC(=O)N[C@@H](CCC(=O)O)C(=O)N[C@H]1CSC2=C(SC[C@@H](C(=O)N[C@@H](CC(=O)O)C(=O)N3CCC[C@H]3C(=O)N[C@@H](C)C(=O)N[C@@H](CCC(=O)O)C(=O)N[C@H](C(=O)N[C@@H](CC(C)C)C(=O)NCC(=O)N[C@H](C(=O)NCC(=O)N[C@@H](C)C(N)=O)[C@@H](C)O)C(C)C)NC(=O)[C@H](Cc3ccccc3)NC(=O)[C@H](CO)NC1=O)C(=O)NC2=O` [TACC3 522-536 E523C/R526C (mal)] (Ac-ECSFCDPAEVLGTGA-NH2; linker 2-5 via Maleimide(3,4-diyl)), the concentration for half-maximal inhibition (IC50) under setting [2] worked out at 376 ± 28 µM.
Take `CC(=O)N[C@@H](CCC(=O)O)C(=O)N[C@H]1CSSC[C@@H](C(=O)N[C@@H](CC(=O)O)C(=O)N2CCC[C@H]2C(=O)N[C@@H](C)C(=O)N[C@@H](CCC(=O)O)C(=O)N[C@H](C(=O)N[C@@H](CC(C)C)C(=O)NCC(=O)N[C@H](C(=O)NCC(=O)N[C@@H](C)C(N)=O)[C@@H](C)O)C(C)C)NC(=O)[C@H](Cc2ccccc2)NC(=O)[C@H](CO)NC1=O` [TACC3 522-536 E523C/R526C (ox)] (Ac-ECSFCDPAEVLGTGA-NH2; disulfide 2-5): the half-maximal inhibitory concentration (IC50) under setting [1] was no less than 500 µM.
Consider `CC(=O)N[C@@H](CCC(=O)O)C(=O)N[C@@H](CS)C(=O)N[C@@H](CO)C(=O)N[C@@H](Cc1ccccc1)C(=O)N[C@@H](CS)C(=O)N[C@@H](CC(=O)O)C(=O)N1CCC[C@H]1C(=O)N[C@@H](C)C(=O)N[C@@H](CCC(=O)O)C(=O)N[C@H](C(=O)N[C@@H](CC(C)C)C(=O)NCC(=O)N[C@H](C(=O)NCC(=O)N[C@@H](C)C(N)=O)[C@@H](C)O)C(C)C` [TACC3 522-536 E523C/R526C (red)] (Ac-ECSFCDPAEVLGTGA-NH2), for which the IC50 under setting [3] is no less than 500 µM.
Take `CC(=O)N[C@@H](CCC(=O)O)C(=O)N[C@@H](CCC(=O)O)C(=O)N[C@@H](CO)C(=O)N[C@@H](Cc1ccccc1)C(=O)N[C@@H](CCCNC(=N)N)C(=O)N[C@@H](CC(=O)O)C(=O)N1CCC[C@H]1C(=O)N[C@@H](C)C(=O)N[C@H]1CSC2=C(SC[C@@H](C(=O)N[C@H](C(=O)NCC(=O)N[C@@H](C)C(N)=O)[C@@H](C)O)NC(=O)[C@H](CC(C)C)NC(=O)[C@H](C(C)C)NC1=O)C(=O)NC2=O` [TACC3 522-536 E530C/G533C (mal)] (Ac-EESFRDPACVLCTGA-NH2; linker 9-12 via Maleimide(3,4-diyl)): the half-inhibitory concentration (IC50) under setting [2] was found to be 223 ± 17 µM.
Regarding `CC(=O)N[C@@H](CCC(=O)O)C(=O)N[C@@H](CCC(=O)O)C(=O)N[C@@H](CO)C(=O)N[C@@H](Cc1ccccc1)C(=O)N[C@@H](CCCNC(=N)N)C(=O)N[C@@H](CC(=O)O)C(=O)N1CCC[C@H]1C(=O)N[C@@H](C)C(=O)N[C@H]1CSSC[C@@H](C(=O)N[C@H](C(=O)NCC(=O)N[C@@H](C)C(N)=O)[C@@H](C)O)NC(=O)[C@H](CC(C)C)NC(=O)[C@H](C(C)C)NC1=O` [TACC3 522-536 E530C/G533C (ox)] (Ac-EESFRDPACVLCTGA-NH2; disulfide 9-12), the IC50 under setting [1] is no less than 500 µM.
Turning to `CC(=O)N[C@@H](CCC(=O)O)C(=O)N[C@@H](CCC(=O)O)C(=O)N[C@@H](CO)C(=O)N[C@@H](Cc1ccccc1)C(=O)N[C@@H](CCCNC(=N)N)C(=O)N[C@@H](CC(=O)O)C(=O)N1CCC[C@H]1C(=O)N[C@@H](C)C(=O)N[C@@H](CS)C(=O)N[C@H](C(=O)N[C@@H](CC(C)C)C(=O)N[C@@H](CS)C(=O)N[C@H](C(=O)NCC(=O)N[C@@H](C)C(N)=O)[C@@H](C)O)C(C)C` [TACC3 522-536 E530C/G533C (red)] (Ac-EESFRDPACVLCTGA-NH2), the 50% inhibitory concentration (IC50) under setting [3] is no less than 500 µM.
Turning to `CC(=O)N[C@@H](CCC(=O)O)C(=O)N[C@@H](CCC(=O)O)C(=O)N[C@@H](CO)C(=O)N[C@H]1CSC2=C(SC[C@@H](C(=O)N[C@@H](C)C(=O)N[C@@H](CCC(=O)O)C(=O)N[C@H](C(=O)N[C@@H](CC(C)C)C(=O)NCC(=O)N[C@H](C(=O)NCC(=O)N[C@@H](C)C(N)=O)[C@@H](C)O)C(C)C)NC(=O)[C@H](CC(=O)O)NC(=O)[C@H](CCCNC(=N)N)NC1=O)C(=O)NC2=O` [TACC3 522-536 F525C/P528C (mal)] (Ac-EESCRDCAEVLGTGA-NH2; linker 4-7 via Maleimide(3,4-diyl)), the IC50 under setting [2] stood at 244 ± 28 µM.
With `CC(=O)N[C@@H](CCC(=O)O)C(=O)N[C@@H](CCC(=O)O)C(=O)N[C@@H](CO)C(=O)N[C@H]1CSSC[C@@H](C(=O)N[C@@H](C)C(=O)N[C@@H](CCC(=O)O)C(=O)N[C@H](C(=O)N[C@@H](CC(C)C)C(=O)NCC(=O)N[C@H](C(=O)NCC(=O)N[C@@H](C)C(N)=O)[C@@H](C)O)C(C)C)NC(=O)[C@H](CC(=O)O)NC(=O)[C@H](CCCNC(=N)N)NC1=O` [TACC3 522-536 F525C/P528C (ox)] (Ac-EESCRDCAEVLGTGA-NH2; disulfide 4-7), the IC50 under setting [1] is no less than 500 µM.
`CC(=O)N[C@@H](CCC(=O)O)C(=O)N[C@@H](CCC(=O)O)C(=O)N[C@@H](CO)C(=O)N[C@@H](CS)C(=O)N[C@@H](CCCNC(=N)N)C(=O)N[C@@H](CC(=O)O)C(=O)N[C@@H](CS)C(=O)N[C@@H](C)C(=O)N[C@@H](CCC(=O)O)C(=O)N[C@H](C(=O)N[C@@H](CC(C)C)C(=O)NCC(=O)N[C@H](C(=O)NCC(=O)N[C@@H](C)C(N)=O)[C@@H](C)O)C(C)C` [TACC3 522-536 F525C/P528C (red)] (Ac-EESCRDCAEVLGTGA-NH2): the IC50 under setting [3] is no less than 500 µM.
For the compound `CC(=O)N[C@@H](CCC(=O)O)C(=O)N[C@@H](CCC(=O)O)C(=O)N[C@@H](CO)C(=O)N[C@@H](Cc1ccccc1)C(=O)N[C@@H](CCCNC(=N)N)C(=O)N[C@@H](CC(=O)O)C(=O)N1CCC[C@H]1C(=O)N[C@@H](C)C(=O)N[C@@H](CCC(=O)O)C(=O)N[C@H](C(=O)N[C@@H](CC(C)C)C(=O)N[C@H]1CSC2=C(SC[C@@H](C(N)=O)NC(=O)CNC(=O)[C@H]([C@@H](C)O)NC1=O)C(=O)NC2=O)C(C)C` [TACC3 522-536 G533C/A536C (mal)] (Ac-EESFRDPAEVLCTGC-NH2; linker 12-15 via Maleimide(3,4-diyl)), the half-maximal inhibitory concentration (IC50) (Table S3 (mal): maleimide-constrained species, WT value is an individual replica control assay, read-out: IC50 (mal)) was no less than 500 µM.
As to `CC(=O)N[C@@H](CCC(=O)O)C(=O)N[C@@H](CCC(=O)O)C(=O)N[C@@H](CO)C(=O)N[C@@H](Cc1ccccc1)C(=O)N[C@@H](CCCNC(=N)N)C(=O)N[C@@H](CC(=O)O)C(=O)N1CCC[C@H]1C(=O)N[C@@H](C)C(=O)N[C@@H](CCC(=O)O)C(=O)N[C@H](C(=O)N[C@@H](CC(C)C)C(=O)N[C@H]1CSSC[C@@H](C(N)=O)NC(=O)CNC(=O)[C@H]([C@@H](C)O)NC1=O)C(C)C` [TACC3 522-536 G533C/A536C (ox)] (Ac-EESFRDPAEVLCTGC-NH2; disulfide 12-15), under setting [1], the IC50 was no less than 500 µM.
